Experiments:
[1] = CC50 assay in Huh-7 HCV replicon cells (CellTiter-Glo); assay type: cell-based; settings: human, 3 days incubation, CellTiter-Glo luminescence
Protocol: (§1) The anti-HCV activity of the pyrido[3,2-d]pyrimidine derivatives of this invention was tested in a human hepatoma Huh-7 cell line harbouring a HCV replicon. The assay comprised the following steps:
(§2) Step 1: Compound Preparation and Serial Dilution
(§3) • 1. for water soluble pyrido[3,2-d]pyrimidine derivatives, a volume of 500 μL of solution in cell media (DMEM, 10% FBS, P/S, L-Glutamine) was prepared with a concentration being twice the concentration of the starting final serial dilution concentration. A volume of 150 μL of the solution was added to the pre-specified wells in column 1 of a 96-well cell culture plate (PerkinElmer, white plate, cat. #6005181, for EC50 assay; black plate, cat. #6005182 for CC50 assay). The rest of the plate, columns 2-12, was filled with 100 μL of cell media. The plate was then placed on a Precision 2000 Workstation to start the serial dilution. Compounds were diluted three times each step from column 1 to column 10. Column 11 was used as a blank control (no compound added). • 2. for pyrido[3,2-d]pyrimidine derivatives requiring DMSO to dissolve, serial dilution is performed in 50% DMSO in a 384-well plate. A solution containing a compound at 100-fold concentration of the starting final serial dilution concentration was prepared in 50% DMSO and added to the pre-specified wells in column 1 of a polypropylene 384-well plate. The plate was then placed on a Precision 2000 Workstation to start the serial dilution. After the serial dilution, a volume of 2 μL of the solution was transferred from the 384-well plate to a 96-well cell culture plate containing 100 μL of cell media on a Biomek FX Workstation. The DMSO concentration in the final assay condition was 0.5% after cells are added to the plate and the total volume in each well is brought to 200 μL. Step 2: to each well of the serial dilution plate prepared above, 100 μL of cell media containing 6000 suspended Huh-7 HCV replicon cells was added with a Multidrop workstation. The plates were incubated for 3 days at 37° C. with 5% CO2. Step 3: Detection: • a) for the EC50 assay, the media in a 96-well cell culture plate was aspirated with a Biotek EL405 plate-washer. A volume of 200 μL of a solution containing a 1:1 mixture of cell-lysis buffer (Promega, Luciferase Cell Culture Lysis 5× Reagent, cat. #E1531) and luciferase substrate solution (Promega, Luciferase Assay, cat. # E4550) was added to each well of the plate with Multidrop. The plate was incubated for 30 minutes at room temperature before the luminescence signal was measured with a TopCount plate-reader. • b) for the CC50 assay, a volume of 100 μL of pre-mixed CellTiter-Glo (Promega, cat. # G7572) solution is added directly to the cell culture in each well of the plate and the luminescence signal is measured with a TopCount plate-reader after 10 minutes of incubation at room temperature.
the 50% cytostatic concentration (CC50), i.e. the concentration that results in 50% inhibition of cell growth.

[2] = tested on: HCV replicon; test: Anti-HCV replicon assay (EC50, luciferase); assay type: cell-based; settings: Hepatitis C virus, 72 h; human hepatoma Huh-7 cell line harbouring a HCV replicon, 3 days incubation, luciferase luminescence
Protocol: as §1, §2, §3
Results in table 13 are expressed by the following data: • the 50% effective concentration (EC50), i.e. the concentration that protects 50% of the cell monolayer from virus-induced cytopathic effect, and […]

SMILES	CC50 at 3 days [1] [nM]	EC50 [2] [nM]	melting point [°C]
Nc1nc(O[C@@H]2CCOC2)c2nc(-c3ccc(F)cc3)ccc2n1 [Example 17, 2-amino-4-[3(R)-tetrahydrofuranyloxy]-6-(4-fluorophenyl)-pyrido(3,2-d) pyrimidine]	> 20000	< 300	–
COC(C)(C)CCOc1nc(N)nc2ccc(-c3ccc(F)cc3)nc12 [Example 12, 2-amino-4-(3-methyl-3-methoxybutoxy)-6-(4-fluorophenyl)pyrido(3,2-d) pyrimidine]	> 20000	< 300	–
Nc1nc(OCC2CC2)c2nc(-c3ccc(F)cc3)ccc2n1 [Example 22, 4-cyclopropylmethoxy-6-(4-fluoro-phenyl)-pyrido[3,2-d]pyrimidin-2-ylamine]	> 20000	< 300	–
Nc1nc(OCCN2CCOCC2)c2nc(-c3ccc(F)cc3)ccc2n1 [Example 21, 6-(4-fluoro-phenyl)-4-(2-morpholin-4-yl-ethoxy)-pyrido[3,2-d]pyrimidin-2-ylamine]	> 20000	300 to 1000	–
Nc1nc(OCC2CCCCO2)c2nc(-c3ccc(F)cc3)ccc2n1 (stereo not drawn) [Example 34, 2-amino-4-(tetrahydropyran-2-methoxy)-6-(4-fluorophenyl)-pyrido(3,2-d)pyrimidine]	10000 to 20000	300 to 1000	202
Nc1nc(OC2CCCC2)c2nc(-c3ccc(F)cc3)ccc2n1 [Example 11, 2-amino-4-(cyclopentoxy)-6-(4-fluorophenyl)pyrido(3,2-d)pyrimidine]	> 20000	< 300	–
Nc1nc(OC2CO[C@H]3OCC[C@@H]23)c2nc(-c3ccc(F)cc3)ccc2n1 (stereo partly drawn) [Example 18, 2-amino-4-[hexahydro-furo(2,3-b)furan-3-oxy]-6-(4-fluorophenyl)-pyrido(3,2-d) pyrimidine]	> 20000	< 300	–
CCOC(C)COc1nc(N)nc2ccc(-c3ccc(F)cc3)nc12 (stereo not drawn) [Example 5, 2-amino-4-(2-ethoxy-1-propoxy)-6-(4-fluorophenyl)pyrido(3,2-d)pyri-midine]	> 20000	< 300	–
CS(=O)(=O)CCOc1nc(N)nc2ccc(-c3ccc(F)cc3)nc12 [Example 19, 2-amino-4-[2-(methylsulfonyl)ethoxy]-6-(4-fluorophenyl)-pyrido(3,2-d) pyrimidine]	> 20000	< 300	–
CSCCOc1nc(N)nc2ccc(-c3ccc(F)cc3)nc12 [Example 8, 2-amino-4-[2-(methylthio)ethoxy]-6-(4-fluorophenyl)pyrido(3,2-d)pyrimidine]	> 20000	< 300	–
Nc1nc(OCC2CCCO2)c2nc(-c3ccc(F)cc3)ccc2n1 (stereo not drawn) [Example 35, 2-amino-4-(tetrahydro-2-furanmethoxy)-6-(4-fluorophenyl)-pyrido(3,2-d)pyrimidine]	10000 to 20000	300 to 1000	193
CC(C)OCCOc1nc(N)nc2ccc(-c3ccc(F)cc3)nc12 [Example 6, 2-amino-4-(2-isopropoxyethoxy)-6-(4-fluorophenyl)pyrido(3,2-d)pyrimidine]	> 20000	< 300	–
Nc1nc(OCC2CCCC2)c2nc(-c3ccc(F)cc3)ccc2n1 [Example 10, 2-amino-4-(cyclopentylmethoxy)-6-(4-fluorophenyl)pyrido(3,2-d)pyrimidine]	> 20000	300 to 1000	–
COCCOc1nc(N)nc2ccc(-c3ccc(F)cc3)nc12 [Example 23, 6-(4-fluoro-phenyl)-4-(2-methoxy-ethoxy)-pyrido[3,2-d]pyrimidin-2-ylamine]	> 20000	< 300	–
Nc1nc(OC2CCOCC2)c2nc(-c3ccc(F)cc3)ccc2n1 [Example 33, 2-amino-4-(tetrahydro-2H-pyran-4-oxy)-6-(4-fluorophenyl)-pyrido(3,2-d)pyrimidine]	10000 to 20000	< 300	–
COC[C@H](C)Oc1nc(N)nc2ccc(-c3ccc(F)cc3)nc12 [Example 37, 2-amino-4-[(S)-1-methoxy-2-propoxy]-6-(4-fluorophenyl)-pyrido(3,2-d)pyrimidine]	> 20000	< 300	–
Nc1nc(OC2CCCCC2)c2nc(-c3ccc(F)cc3)ccc2n1 [Example 32, 2-amino-4-cyclohexyloxy-6-(4-fluorophenyl)-pyrido(3,2-d)pyrimidine]	< 10000	300 to 1000	180
Nc1nc(OCC(F)F)c2nc(-c3ccc(F)cc3)ccc2n1 [Example 7, 2-amino-4-(2,2-difluoroethoxy)-6-(4-fluorophenyl)pyrido(3,2-d)pyrimidine]	> 20000	< 300	–
CCCCOCCOc1nc(N)nc2ccc(-c3ccc(F)cc3)nc12 [Example 4, 2-amino-4-(2-butoxyethoxy)-6-(4-fluorophenyl)pyrido(3,2-d)pyrimidine]	> 20000	> 1000	–
CCC(CC)Oc1nc(N)nc2ccc(-c3ccc(F)cc3)nc12 [Example 20, 4-(1-ethyl-propoxy)-6-(4-fluoro-phenyl)-pyrido[3,2-d]pyrimidin-2-ylamine]	< 10000	< 300	–
C=CC(C)(C)Oc1nc(N)nc2ccc(-c3ccc(F)cc3)nc12 [Example 13, 2-amino-4-(2-methyl-3-buten-2-oxy)-6-(4-fluorophenyl)pyrido(3,2-d)pyrimidine]	> 20000	> 1000	–
Nc1nc(O[C@H]2CCOC2)c2nc(-c3ccc(F)cc3)ccc2n1 [Example 16, 2-amino-4-[3(S)-tetrahydrofuranyloxy]-6-(4-fluorophenyl)-pyrido(3,2-d)pyrimidine]	> 20000	< 300	–
CC#CCCOc1nc(N)nc2ccc(-c3ccc(F)cc3)nc12 [Example 14, 2-amino-4-(3-pentyn-1-oxy)-6-(4-fluorophenyl)pyrido(3,2-d)pyrimidine]	> 20000	> 1000	–
Nc1nc(OC2CCC2)c2nc(-c3ccc(F)cc3)ccc2n1 [Example 9, 2-amino-4-(cyclobutoxy)-6-(4-fluorophenyl)pyrido(3,2-d)pyrimidine]	> 20000	< 300	–
COC[C@@H](C)Oc1nc(N)nc2ccc(-c3ccc(F)cc3)nc12 [Example 38, 2-amino-4-[(R)-1-methoxy-2-propoxy]-6-(4-fluorophenyl)-pyrido(3,2-d)pyrimidine]	10000 to 20000	< 300	–
Nc1nc(OCC2CCOC2)c2nc(-c3ccc(F)cc3)ccc2n1 (stereo not drawn) [Example 36, 2-amino-4-(tetrahydro-3-furanmethoxy)-6-(4-fluorophenyl)-pyrido(3,2-d)pyrimidine]	10000 to 20000	< 300	219
CCCOCCOc1nc(N)nc2ccc(-c3ccc(F)cc3)nc12 [Example 3, 2-amino-4-(2-propoxyethoxy)-6-(4-fluorophenyl)pyrido(3,2-d)pyrimidine]	> 20000	300 to 1000	–
CCOCCOc1nc(N)nc2ccc(-c3ccc(F)cc3)nc12 [Example 24, 4-(2-ethoxy-ethoxy)-6-(4-fluoro-phenyl)-pyrido[3,2-d]pyrimidin-2-ylamine]	> 20000	< 300	–

From patent US8637531B2, “Pyrido(3,2-d)pyridmidines useful for treating viral infections” (Gilead Sciences, Inc., priority 2006, dated 2014)
